Source: the supplement of paper PMC10307832

What was measured:
Test in all cases: relative viability (nuclei count vs DMSO), 5 days (fraction); higher = more cells survive
[1] = compound: Cc1cnc(Nc2ccc(OCCN3CCCC3)cc2)nc1Nc1cccc(S(=O)(=O)NC(C)(C)C)c1 [Fedratinib] + N=C(N)NC(=N)NCCc1ccccc1 [Phenformin] (partner 250 µM)
Outline: (§1)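 Cells from lung cancer lines were seeded into 1536-well plates and, one day later, dosed by pin tool. Treatments were either a single drug or a fixed dose of an anchor drug with five library-drug doses (not always all listed) in √10 steps. After 5 days, nuclei were stained in a one-step fixation (final 0.05% Triton X-100, 1% formaldehyde, 1 ug/ml Hoechst) and counted on 4× images, and relative viability is the treated-to-vehicle nuclei ratio, as the median of duplicate plates.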

[2] = compound: COC1=CC=C(C=C1)COC2=C(C=C(C=C2)CC3=CN=C(N=C3N)N)OC [GW-2580] + CC1(C)CCC(c2ccc(Cl)cc2)=C(CN2CCN(c3ccc(C(=O)NS(=O)(=O)c4ccc(N[C@H](CCN5CCOCC5)CSc5ccccc5)c(S(=O)(=O)C(F)(F)F)c4)cc3)CC2)C1 [Navitoclax] (partner 0.5 µM)
Outline: as §1

[3] = compound: COC1=CC=C(C=C1)COC2=C(C=C(C=C2)CC3=CN=C(N=C3N)N)OC [GW-2580] + N=C(N)NC(=N)NCCc1ccccc1 [Phenformin] (partner 250 µM)
Outline: as §1

[4] = compound: COC1=CC=C(C=C1)COC2=C(C=C(C=C2)CC3=CN=C(N=C3N)N)OC [GW-2580]
Outline: (§2)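 Five library-drug doses, separated by factors of √10, were pinned into 1536-well plates holding lung cancer cell lines after an overnight stay at 37 °C. Cells were fixed, permeabilised and Hoechst-stained in one step after 5 days without medium change, then imaged at 4×. Viability compares treated-well with vehicle-well nuclei, counted in MetaXpress, as a median across plates. Passing plates had control CV below 25% and at least one doubling.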

[5] = compound: Cc1cnc(Nc2ccc(OCCN3CCCC3)cc2)nc1Nc1cccc(S(=O)(=O)NC(C)(C)C)c1 [Fedratinib]
Outline: as §2

Row | Cell Line | relative viability ([1]; first compound 0.1 µM) | relative viability ([1]; first compound 0.3162 µM) | relative viability ([1]; first compound 1 µM) | relative viability ([2]; first compound 0.08 µM) | relative viability ([2]; first compound 0.8 µM) | relative viability ([2]; first compound 2.53 µM) | relative viability ([2]; first compound 8 µM) | relative viability ([3]; first compound 0.08 µM) | relative viability ([3]; first compound 0.8 µM) | relative viability ([3]; first compound 2.53 µM) | relative viability ([3]; first compound 8 µM) | relative viability ([4]; 0.08 µM) | relative viability ([4]; 0.8 µM) | relative viability ([4]; 2.53 µM) | relative viability ([4]; 8 µM) | relative viability ([5]; 0.1 µM) | relative viability ([5]; 0.3162 µM) | relative viability ([5]; 1 µM)
1 | LOU-NH91 | 0.689 | 0.899 | 0.733 | 0.683 | 0.731 | 0.618 | 0.752 | 0.692 | 0.757 | 0.611 | 0.66 | 0.987 | 1.05 | 0.843 | 0.973 | 0.893 | 1.08 | 0.723
2 | NCI-H3122 | 0.292 | 0.407 | 0.339 | 1.04 | 1.06 | 1.13 | 0.892 | 0.41 | 0.366 | 0.339 | 0.341 | 1.03 | 1.09 | 1.06 | 1.01 | 1.05 | 1.02 | 0.892
3 | HCC-827 | 0.388 | 0.42 | 0.464 | 1.06 | 0.952 | 0.898 | 0.92 | 0.451 | 0.442 | 0.436 | 0.447 | 1.06 | 1.05 | 1.04 | 0.965 | 1.07 | 1.01 | 1.03
4 | SK-LU-1 | 0.5 | 0.514 | 0.328 | 0.869 | 0.85 | 1.06 | 1.05 | 0.559 | 0.731 | 0.383 | 0.537 | 1.09 | 1.12 | 0.826 | 1.14 | 1.06 | 0.906 | 0.868
5 | NCI-H1975 | 0.416 | 0.407 | 0.37 | 1.2 | 1.3 | 1.21 | 0.98 | 0.44 | 0.43 | 0.414 | 0.418 | 1.04 | 1.12 | 0.935 | 0.87 | 0.933 | 0.939 | 0.798
6 | NCI-H1651 | 0.287 | 0.318 | 0.247 | 1.04 | 1.15 | 0.95 | 1.18 | 0.36 | 0.371 | 0.304 | 0.358 | 1.06 | 1.08 | 0.952 | 0.977 | 0.958 | 0.984 | 0.945
7 | NCI-H441 | 0.812 | 0.747 | 0.727 | 1.03 | 0.33 | 0.575 | 0.515 | 0.997 | 0.852 | 0.773 | 1.05 | 1.07 | 0.924 | 1.01 | 1.14 | 1.03 | 1.04 | 0.734
8 | LCLC-97TM1 | 0.477 | 0.425 | 0.37 | 0.443 | – | 0.369 | 0.321 | 0.443 | 0.469 | 0.438 | 0.454 | 0.972 | 1.07 | 0.848 | 1.03 | 1.05 | 1.02 | 0.778
9 | NCI-H727 | 0.76 | 0.477 | 0.352 | 0.454 | 0.538 | 0.402 | 0.384 | 0.662 | 0.574 | 0.499 | 0.652 | 1.14 | 1.03 | 0.971 | 0.823 | 1.03 | 0.928 | 0.813
10 | NCI-H1355 | 0.379 | 0.467 | 0.327 | 0.984 | 1.08 | 0.827 | 0.944 | 0.426 | 0.496 | 0.347 | 0.397 | 1.03 | 1.11 | 0.837 | 0.976 | 1 | 0.993 | 0.904
11 | HOP-62 | 0.682 | 0.601 | 0.631 | 1.15 | 1.05 | 0.984 | 1.26 | 0.758 | 0.744 | 0.637 | 0.655 | 1.06 | 1.12 | 0.982 | 1.03 | 1.01 | 0.907 | 0.987
12 | NCI-H2085 | 0.671 | 0.749 | 0.688 | 1.09 | 1.11 | 1.03 | 1.07 | 0.756 | 0.739 | 0.682 | 0.769 | 1.05 | 1.03 | 0.987 | 0.954 | 0.929 | 1.02 | 0.883
